Source: patent publication US20080132481A1, “INTERLEUKIN-4 GENE EXPRESSION INHIBITORS” (AVENTIS PHARMACEUTICALS INC., priority 2002, published 2008)
Counter-ions that a name gives are not always drawn. Starred links: 1 amine or outer side, 2 acyl side, 3 side chain; linkers in the order of their positions; H or OH if unused. Positions of bridges follow the written chain, without caps; N, C: chain ends. Non-standard residues stand in square brackets, D forms with d. Residues, ends and D or L forms follow the SMILES beside them. Chains are numbered I, II in the order given. Actinocin(9to1) = Cc1c2oc3c(C)ccc(C(=O)[*:1])c3nc-2c(C(=O)[*:2])c(N)c1=O; NMeV = CN[C@H](C(=O)O)C(C)C; Sar = CNCC(=O)O

Key:
IL-4 = assay: In vivo ovalbumin (OVA) mouse model, BALF IL-4; conditions: i.n.
Protocol: (§1) This model is designed to determine the ability of a test article to modulate an antigen-induced pulmonary inflammatory cell accumulation in sensitized Balb/c mice from Charles River Laboratories. The mice are given a two week time period from arrival date prior to sensitizations.
(§2) On days 0, 7, 14, each animal is injected intraperitoneal (i.p.) with a 0.2 ml Ovalbumin Hydragel solution. Each animal receives 10 μg of Ovalbumin in 0.2 mL of Hydragel, aluminum hydroxide adsorptive gel containing 2% aluminum oxide. On Day 21, the animals are dosed with test compounds 30-60 minutes prior to 5% Ovalbumin aerosolized challenge. On day 22, BALF samples are collected from one group of animals and used for cytokine analysis. On day 24, BALF is obtained from a second group of animals and used for differential cell counts.
(§3) Test System: Female Babl/cJ mice (Jackson Laboratories), approximately 6-9 weeks old, each weighing approximately 20 to 25 grams, are divided into ten animals per group.
(§4) Sensitization Regimen: Mice are sensitized by an intraperitoneal injection of 10 μg ovalbumin (OVA) mixed in 4 mg aluminum hydroxide Al(OH)3 gel suspension in 0.2 ml sterile saline on Days 0, 7 and 14. This suspension is prepared one hour before intraperitoneal injection into each mouse. The animals are ready for OVA challenge on Day 21.
(§5) Antigen Challenge: Animals are exposed to aerosolized OVA on day 21 (5% w/v in sterile saline) for 20 minutes. The aerosol is generated by a PARI-Master nebulizer, the outlet of which is connected to a small Plexiglas® chamber containing the animals. Bronchoalveolar lavage is performed on Day 22.
(§6) Method of Study Performance: On day 24, 72 hours following aerosol OVA exposure, a separate group of animals are anesthetized with urethane (0.15-0.2 gm/kg) and the trachea is exposed and cannulated. Lungs are lavaged with 2×0.5 ml Hank's balanced salt solution without Ca^2+ and Mg^2+ (HBSS; Gibco, Grand Island, N.Y.) containing 0.1% EDTA. Lavage fluid is recovered after 30 sec by gentle aspiration and pooled for each animal. Samples are centrifuged at 2000 rpm for 15 minutes at 5° C. After centrifugation, individual supernatants are stored frozen at −80° C. The resulting pellet is resuspended in 0.5 ml of HBSS containing 0.1% EDTA. Total cells and eosinophils are determined using a Technicon Hl and cytoslides, respectively.
Administration of the Test/Control Article: The test article and vehicle dosing preparations are administered once to each anesthetized mouse intranasally using a 200 μl pipette at 30-60 minutes prior to OVA challenge. Each animal receives 50 μl (25 μl/nostril) at each time point. Method of Euthanasia: Urethane overdose at in-life completion.
Statistical Analysis: Total cell and eosinophil number from various treatment groups is compared using an ANOVA followed by a multiple comparison test.
Compounds administered 30 minutes before aerosol ovalbumin challenge in ova sensitized mice. BALF harvested 24 hours after aerosol challenge. N=6/group.
FIG. 1 summarizes results from one representative experiment (out of three) in which in addition to BALF cytokines, lung eosinophilia is also determined. Mice (12 animals per group) are sensitized with 0.2 ml of an AlOH3 hydrogel suspension (2% AlOH3) containing 50 μg/ml ovalbumin on days 0, 7 and 14. […] After the OVA challenge for 24 hours, the mice underwent bronchoalveolar lavage and IL-4 and IL-13 levels in the BALF are determined by ELISA. […]

eosinophils = assay: In vivo ovalbumin (OVA) mouse model, BALF eosinophils; conditions: i.n., 30 mg/kg
Protocol: as §1, §2, §3, §4, §5
as §6, with “respectively. […]” for “respectively.”
FIG. 1 summarizes results from one representative experiment (out of three) in which in addition to BALF cytokines, lung eosinophilia is also determined. […] After the OVA challenge for 24 hours, the mice underwent bronchoalveolar lavage and IL-4 and IL-13 levels in the BALF are determined by ELISA. […]

Swiss 3T3 fibroblasts = assay: In vitro cytotoxicity assay on contact inhibited 3T3 fibroblasts (MTS); type: cell-based; conditions: non-dividing 3T3 cells
Protocol: Other toxicity assays may be used.
Any compound killing 3T3 fibroblast cells was omitted from further studies.
Contact inhibited Swiss 3T3 fibroblasts are purchased from ATCC.
All compound dilutions are assayed in triplicate. […] Cells are returned to the incubator for 2 days.
Media is added to blank wells for background calculations.
Note that starting concentration of CsA was 1 μM.

Row | melting point | SMILES | IL-4% ctl At 24 hours (IL-4; 30 mg/kg) [% ctl] | Eos % ctl At 72 hours (eosinophils) [% ctl] | further results
1 | 248 to 250 °C | CCOC(=O)c1[nH]c2ccccc2c1Nc1ccncc1 [Example 11, 3-(4-pyridinylamino)-1H-indole-2-carboxylic acid, ethyl ester] | – | – | –
2 | – | CCOC(=O)c1c(Nc2ccncc2)c2ccccc2n1C [Example 24A (maleate salt), 1-Methyl-3-(4-pyridinylamino)-1H-indole-2-carboxylic ethyl ester] | 3 | 8 | –
3 | – | Cc1c2oc3c(C)ccc(C(=O)N[C@@H]4C(=O)N[C@H](C(C)C)C(=O)N5CCC[C@H]5C(=O)N(C)CC(=O)N(C)[C@@H](C(C)C)C(=O)O[C@@H]4C)c3nc-2c(C(=O)N[C@@H]2C(=O)N[C@H](C(C)C)C(=O)N3CCC[C@H]3C(=O)N(C)CC(=O)N(C)[C@@H](C(C)C)C(=O)O[C@@H]2C)c(N)c1=O [Actinomycin D, reference compound] (I: T[dV]P[Sar][NMeV] / II: T[dV]P[Sar][NMeV]; ester I:1-I:C, II:1-II:C; linker I:N-II:N via Actinocin(9to1)) | – | – | toxic effects on quiescent 3T3 cells (in words) (Swiss 3T3 fibroblasts): the only compound which effected the viability
4 | – | O=C(O)c1[nH]c2ccccc2c1Nc1ccncc1 [Example 28-EF, 3-(4-Pyridinylamino)-1H-indole-2-carboxylic acid] | 27 | 42 | –
5 | 241 to 243 °C | CCOC(=O)c1[nH]c2cc(-c3ccccc3)ccc2c1Nc1ccncc1 [Example 18, 6-phenyl-3-(4-pyridinylamino)-1H-indole-2-carboxylic acid, ethyl ester] | – | – | –
6 | – | O=C(O)c1[nH]c2ccccc2c1Nc1ccncc1 [Example 28-ZD, 3-(4-Pyridinylamino)-1H-indole-2-carboxylic acid] | 49.6 | 37.4 | –
7 | – | CCOC(=O)c1[nH]c2cc(Cl)cc(Cl)c2c1NS(=O)(=O)c1ccccc1 [Example 90, 3-((Phenylsulfonyl)amino)-4,6-dichloro-1H-indole-2-carboxylic acid ethyl ester] | 37 | 71 | –
8 | – | O=C(O)c1[nH]c2ccccc2c1Nc1ccncc1 [28 (maleate salt), 3-(4-Pyridinylamino)-1H-indole-2-carboxylic acid] | – | – | IL-4% ctl At 24 hours (IL-4; 12 mg/kg): 50 % ctl
9 | 258 to 261 °C (dec.) | CCOC(=O)c1[nH]c2cc(Cl)ccc2c1Nc1ccncc1 [Example 13, 6-chloro-3-(4-pyridinylamino)-1H-indole-2-carboxylic acid, ethyl ester] | – | – | –
